Series [1] concerns human malignant mesothelioma cell line JU77. Put plainly: MTT cytotoxicity assay, 72 h, JU77. In kind it is cell-based. The note with it: exposure time 72 h. Background: Tetrazolium assays rely on reduction of a dye to a coloured formazan, in cell work by metabolically active cells.
Excerpt: (§1) Human malignant mesothelioma cancer cell lines JU77 and LO68 were obtained from Cell Bank Australia (Children's Medical Research Institute, Westmead, Australia). Mouse malignant mesothelioma cancer cell line AB12, human nonmalignant mesothelioma cancer cell line Met5A (mesothelial cells), mouse macrophage cell line J774 and human monocytic cell line THP-1 were obtained from American Type Culture Collection (ATCC) (Rockville, MD, USA). Human malignant mesothelioma cell lines VMC23 (epithelial), Meso82 (sarcomatous), Meso92 (biphasic), were kindly provided by Prof. Walter Berger (Medical University of Vienna). All cells except for J774 were cultured in RPMI and J774 cells were cultured in DMEM. Both types of media were supplemented with 10% FBS and 1% penicillin-streptomycin (10,000 U/mL). Cells were grown in tissue culture flasks (75 cm2 and 25 cm2, SPL Life Sciences Co., Ltd., Korea). All cell lines were grown at 37 °C in a humidified atmosphere of 95% air and 5% CO 2 and passaged when they reached 80–90% confluency. All Au stock solutions were prepared in 1% DMSO in the respected medium, ensuring that cell viability was not inhibited.
(§2) The cytotoxicity of compounds was determined using an MTT colorimetric test. The cells were harvested from culture flasks by trypsinization and seeded into Cellstar 96 -well microculture plates (Greiner Bio -One) at the seeding density of 6000 cells per well (6 × 10^4 cells/mL). After
(§3) the cells were allowed to resume exponential growth for 16 h, they were exposed to drugs at
(§4) different concentrations in media for 72 h. The drugs were diluted in a complete medium at the desired concentration added to each well (100 μL) and serially diluted in other wells. After exposure for 72 h, the media was replaced with MTT in media (5 mg/mL, 100 μL/well) and
In series [2] the test system is patient-derived Meso84 cell line (sarcomatoid MPM). As to the kind of experiment: MTT cytotoxicity assay, 72 h, Meso84. In kind it is cell-based, human. As to conditions: exposure time 72 h.
Series [3] deals with patient-derived VMC23 cell line (epithelioid MPM). As to the kind of experiment: MTT cytotoxicity assay, 72 h, VMC23. In kind it is cell-based, human. As to conditions: exposure time 72 h.
The subject of series [4] is patient-derived Meso92 cell line (biphasic MPM). As to the kind of experiment: MTT cytotoxicity assay, 72 h, Meso92. As to conditions: exposure time 72 h. In kind it is cell-based, human.
In series [5] the test system is murine malignant mesothelioma cell line AB12. As to the kind of experiment: MTT cytotoxicity assay, 72 h, AB12. It is filed as cell-based, mouse. The note with it: exposure time 72 h.
Excerpt: as §1, §2, §3, §4
Series [6] concerns human nonmalignant mesothelioma cell line Met5A. Put plainly: MTT cytotoxicity assay, 72 h, Met5A. In kind it is cell-based. As to conditions: exposure time 72 h.
In series [7] the test system is human malignant mesothelioma cell line LO68. Put plainly: MTT cytotoxicity assay, 72 h, LO68. It is filed as cell-based. The note with it: exposure time 72 h.
The conditions of series [8]: determined from retention time using RP-HPLC.
Series [9] has as its system M0-differentiated THP-1 cells. Put plainly: MTT-based viability assay on M0-differentiated THP-1 cells, 72 h. The note with it: 72-h exposure, compared with AB12 cells. It is filed as cell-based, human. The procedure:
incubated for an additional 50 min. Subsequently, the medium was aspirated, and the purple formazan crystals formed in viable cells were dissolved in DMSO (100 μL/well). Optical densities were measured at 570 nm using a BioTek Synergy H1 microplate and MultiskanTM SkyHigh plate readers. The quantity of viable cells was expressed in terms of treated/control (T/C) values in comparison to untreated control cells, and 50% inhibitory concentrations (IC 50) were calculated from concentration-effect curves by interpolation. An evaluation was based on means from at least three independent experiments, each comprising three replicat es per […]
For macrophage analyses, the acute monocytic leukemia -derived THP-1 cell line (ATCC) was used as a model. 1 × 104 THP-1 cells were seeded per well in 96-well plates in RPMI-1640 with 10% FCS and treated for 24 h with 75 nM phorbol 12-myristate 13-acetate (PMA, Sigma-Aldrich) to induce M0 macrophage differentiation. After the differentiation period, PMA was replaced by fresh culture medium to recover for 2h. Afterwards increasing concentrations of 1G, 5A, 5B and 5G were added for a 72-h continuous drug exposure assay. In parallel, the murine mesothelioma cell line AB12 was seeded into 96 -well plates at 2.5 × 10^3 cells/well and were allowed to attach for 24 h. Gold compounds were added to the cells as described for the THP-1 model above. After the incubation period of 72 h, cell viability was determined by an MTT-based assay (EU4U, Biomedica) following the instructions of the manufacturer. DMSO had not impact on the cell viability at the concentrations used. […]

The subject of series [10] is AB12 cells phagocytosed by J774 macrophages. As to the kind of experiment: Phagocytosis assay, flow cytometry. In kind it is cell-based, mouse. As to conditions: AB12 treated 100 min at 5 × IC50 (72 h), 16 h with J774 macrophages. Here is the method:
page 21: incubated for an additional 50 min. Subsequently, the medium was aspirated, and the purple formazan crystals formed in viable cells were dissolved in DMSO (100 μL/well). Optical densities were measured at 570 nm using a BioTek Synergy H1 microplate and MultiskanTM SkyHigh plate readers. The quantity of viable cells was expressed in terms of treated/control (T/C) values in comparison to untreated control cells, and 50% inhibitory concentrations (IC 50) were calculated from concentration-effect curves by interpolation. An evaluation was based on means from at least three independent experiments, each comprising three […] concentration level. For macrophage analyses, the acute monocytic leukemia -derived THP-1 cell line (ATCC) was used as a model. 1 × 104 THP-1 cells were seeded per well in 96-well plates in RPMI-1640 with 10% FCS and treated for 24 h with 75 nM phorbol 12-myristate 13-acetate (PMA, Sigma- Aldrich) to induce M0 macrophage differentiation. After the differentiation period, PMA was replaced by fresh culture medium to recover for 2h. Afterwards increasing concentrations of 1G, 5A, 5B and 5G were added for a 72-h continuous drug exposure assay. In parallel, the […] were allowed to attach for 24 h. Gold compounds were added to the cells as described for the THP-1 model above. After the incubation period of 72 h, cell viability was determined by an MTT-based assay (EU4U, Biomedica) following the instructions of the manufacturer. DMSO had not impact on the cell viability at the concentrations used. Flow cytometry experiments Phagocytosis assay […] with RPMI, centrifuged (300 × g, 5 min) and labelled with CellTracker Red CMTPX Dye (0.72 μM for 5 × 10^5 cells) at 37°C for 30 minutes in 1 ml of serum -free RPMI. Following S21 page 22: centrifugation of the cells (300 × g, 5 min), 5 ml of fresh RPMI was introduced, and the cells were seeded at a density of 5 x 10^5 cells per well into Cellstar 6-well plates (Greiner Bio-One) (1 ml per well). J774 macrophages (70-80% confluence in a T75 flask) were detached by scraping, centrifuged (300 × g, 5 min). The medium was substituted with 1 ml of DMEM containing CellTracker Green CMFDA (1 μM) and the J774 macrophages were stained at 37°C for 30 minutes. Following centrifugation of the J774 macrophages (300 × g, 5 min), 5 ml of fresh DMEM was introduced, and the macrophages were seeded into a 100 cm2 petri dish (SPL Life Sciences, Korea). After 24 h, the media in AB12 cells was replaced with 1 ml of fresh […] for 100 minutes. After removing the drug-containing media, the cells were trypsinized (0.5 ml), neutralized with 1 ml of RPMI, centrifuged (300 × g, 5 min) and counted. From each sample, […] cells into 6-well plates. AB12 cells and J774 macrophages were co-incubated for 16 h at 37°C and 5% CO2, detached by scraping, centrifuged (300 × g, 5 min), and the pellets were resuspended in PBS for immediate analysis using a CytoFLEX Flow Cytometer (Beckman Coulter, USA). The percentage of phagocytosis was determined by calculating the number of double-positive macrophages (Q2) over the total number of macrophages (Q2 + Q3). […] Annexin V/PI assay AB12 cells were seeded into Cellstar 6-well plates (Greiner Bio-One) at a density of 5 × 10^5 cells/well (1 ml per well). […] The medium was removed and cells were washed with PBS (2 × 1 mL). Afterwards the cells were […] S22
Background: Flow cytometry measures light scatter and fluorescence of single cells or particles in a stream.

A further series relates to AB12 cells. Put plainly: Annexin V/PI assay (necrosis), flow cytometry. It is filed as cell-based, mouse. The note with it: AB12, 5 × IC50 (72 h), short exposure. The procedure: centrifugation of the cells (300 × g, 5 min), 5 ml of fresh RPMI was introduced, and the cells were seeded at a density of 5 x 10^5 cells per well into Cellstar 6-well plates (Greiner Bio-One) (1 ml per well). J774 macrophages (70-80% confluence in a T75 flask) were detached by scraping, centrifuged (300 × g, 5 min). The medium was substituted with 1 ml of DMEM containing CellTracker Green CMFDA (1 μM) and the J774 macrophages were stained at 37°C for 30 minutes. Following centrifugation of the J774 macrophages (300 × g, 5 min), 5 ml of fresh DMEM was introduced, and the macrophages were seeded into a 100 cm2 petri dish (SPL Life Sciences, Korea). After 24 h, the media in AB12 cells was replaced with 1 ml of fresh RPMI containing compounds of interest at equipotent concentration of 5 × IC50 and incubated for 100 minutes. After removing the drug-containing media, the cells were trypsinized (0.5 ml), neutralized with 1 ml of RPMI, centrifuged (300 × g, 5 min) and counted. From each sample, 2 × 10^5 AB12 cells were seeded into Cellstar 6-well plates (Greiner Bio-One) (1 ml per well).
2 × 10^5 J774 macrophages were detached from a petri dish by scraping and added to AB12 cells into 6-well plates. AB12 cells and J774 macrophages were co-incubated for 16 h at 37°C and 5% CO2, detached by scraping, centrifuged (300 × g, 5 min), and the pellets were resuspended in PBS for immediate analysis using a CytoFLEX Flow Cytometer (Beckman Coulter, USA). The percentage of phagocytosis was determined by calculating the number of double-positive macrophages (Q2) over the total number of macrophages (Q2 + Q3). Dot plots […]
analysis of the flow cytometry data. […]
concentrations for 100 min at 37 °C. […] Cell death was evaluated by flow cytometry using a CytoFLEX Flow Cytometer equipped with a 488 nm laser and a 638 nm laser (Beckman Coulter, Brea, CA, USA). The cells were excited by the 488 nm laser, and fluorescence emissions were detected at 525/40 nm for FITC (Annexin V) and at 610/20 nm for ECD (PI).
The percentage of necrosis was determined by calculating the sum of cells in Q1 and Q2. […]

The subject of series [11] is AB12 cells in BALB/c mice. As to the kind of experiment: In vivo vaccination model. Details: species or system mouse. The note with it: within the first 30 days after vaccination, n = 8.
Excerpt: Initially, AB12 cells underwent pretreatment with varying concentrations of Au(III) complexes, and the induced cell death and release of desired ICD biomarkers were monitored over time. Upon reaching a cell death rate of 65%–75%, BALB/c mice (n = 8) were subcutaneously injected in the left flank with a vaccine containing 3 × 10^5 of live/dying/dead cells, while the vehicle group received injections of PBS. Seven days postvaccine administration, the immunized mice were rechallenged by inoculating the same number of live AB12 cells (without any prior treatment) into the right flanks (Figure 5A). The progression of tumor growth on the right flanks was monitored using a caliper.
AB12 cells were seeded into Cellstar 24-well plates (Greiner Bio-One) at a density of 1.8 × 104
cells/ml (1 ml per well) and allowed to grow exponentially for 16 hours. Subsequently, the
medium was replaced with 1 ml of fresh medium containing compounds of interest at
predetermined concentrations (with a minimum of 4 wells per treatment condition). These
concentrations were selected to induce 65-75% cell death.
Subsequently, the culture
medium was aspirated, and the cells were washed twice with 1 mL of PBS. The cell
concentration was adjusted to 3 × 10^5 cells (including dead/dying/live cells) per 100 μL of PBS,
and the ratio of dead/live cells was assessed using the Invitrogen Countess 3 cell counter. In
the subsequent experiment, BALB/c mice (8 mice per group) were subcutaneously injected
with 0.1 mL of AB12 cells (3 × 10^5 cells/mL, including dead/dying/live cells) or the
corresponding vehicle (PBS) on the left flank. Tumor growth was monitored daily.
After 7 days, the mice were subcutaneously injected with
0.1 mL of AB12 cells (3 × 10^5 cells/mL, live cells) on the right flank. Regular measurements
of body weights and tumor sizes were taken. Mice that developed palpable tumors were
euthanized for further analysis.

The values below come from PMC11887451, “Leveraging Immunogenic Cell Death to Enhance the Immune Response against Malignant Pleural Mesothelioma Tumors” (Journal of the American Chemical Society, 2025).

SMILES strings stand for the structures.

A word on the IC50: it is the point on the concentration scale where inhibition reaches its midpoint. A high value points to a need for much substance. As a reminder, the LogP is the decadic logarithm of the partition coefficient of the neutral form, usually between octanol and water. High values mean higher lipophilicity, low ones lower lipophilicity. `F[P-](F)(F)(F)(F)F.c1cc[c]2c(c1)Cc1cccc[n+]1[Au-]21[S]C(=[N+]2CCCCC2)[S]1` (stereo not shown) [2H]: the IC50 in series [1] was 2 ± 0.5 µM; in series [2], 0.3 ± 0.07 µM; in series [3], 8.4 ± 1.3 µM; in [4], 5.2 ± 1.2 µM; in series [5], 0.31 ± 0.08 µM; in [6] it was 2.2 ± 0.5 µM. The same molecule returned an IC50 in [7] of 1.9 ± 0.3 µM. The molecule further registered a LogP in series [8] of 2.56.
Consider `CC[N+](CC)=C1[S][Au-]2([S]1)[c]1ccccc1Nc1cccc[n+]12.F[P-](F)(F)(F)(F)F` (stereo not shown) [5B], for which the IC50 was found to be 0.19 ± 0.05 µM in series [1]; 0.063 ± 0.019 µM in series [2]; 0.3 ± 0.09 µM in series [3]; 0.21 ± 0.06 µM in series [4]; 0.053 ± 0.002 µM in [5]; 0.18 ± 0.05 µM in [6]. The molecule also gave an IC50 in series [7] of 0.24 ± 0.02 µM. In addition, the “sensitivity of THP-1-derived macrophages” value in series [9] is reported as “highly sensitive”.
In the case of `COC1c2cccc[c]2[Au-]2([S]C(=[N+](Cc3ccccc3)Cc3ccccc3)[S]2)[n+]2ccccc21.F[P-](F)(F)(F)(F)F` (racemic) [4D], the IC50 in series [1] stood at 1.7 ± 0.2 µM; in [2] it was 2.9 ± 0.7 µM; in [3], 4.2 ± 0.7 µM; in series [4], 4.1 ± 0.9 µM; in series [5] it was 2.3 ± 0.1 µM; in series [6] it was 3.2 ± 0.3 µM. The molecule also showed an IC50 in series [7] of 2.3 ± 0.6 µM. The phagocytosis rate in [10] was 35% ± 9%.
With `COC1c2cccc[c]2[Au-]2([S]C(=[N+]3CCCCC3)[S]2)[n+]2ccccc21.F[P-](F)(F)(F)(F)F` (racemic) [4H], the IC50 stood at 2.4 ± 0.2 µM in series [1]; 0.33 ± 0.08 µM in [2]; 2.8 ± 0.3 µM in series [3]; 1.7 ± 0.3 µM in series [4]; 0.22 ± 0.03 µM in series [5]; 0.68 ± 0.14 µM in series [6]. Half-maximal inhibition in series [7] (IC50) required 2.5 ± 0.1 µM. The molecule further gave a LogP in series [8] of 2.33.
For `F[P-](F)(F)(F)(F)F.c1cc[c]2c(c1)-c1cccc[n+]1[Au-]21[S]C(=[N+]2CCCCCC2)[S]1` (stereo not shown) [1G], the IC50 is 0.22 ± 0.03 µM in series [1]; 0.5 ± 0.04 µM in series [2]; 0.72 ± 0.14 µM in [3]; 1.4 ± 0.2 µM in [4]; 1.1 ± 0.1 µM in series [5]; 0.43 ± 0.09 µM in [6]. Besides, in series [7], the IC50 came out at 0.5 ± 0.12 µM. Further, the “sensitivity of THP-1-derived macrophages” value in series [9] is on record as “highly sensitive”.
Regarding `F[P-](F)(F)(F)(F)F.c1ccc(C[N+](Cc2ccccc2)=C2[S][Au-]3([S]2)[c]2ccccc2Cc2cccc[n+]23)cc1` (stereo not shown) [2D], in the series on AB12 cells, the “necrotic cell death (in words)” value was “did not result in significant necrotic cell death”. Further, the IC50 worked out at 2.3 ± 0.7 µM in series [1]; 3 ± 0.3 µM in [2]; 2.4 ± 0.5 µM in [3]; 5.4 ± 1.3 µM in [4]; 3.9 ± 0.5 µM in series [5]; 2.5 ± 0.4 µM in series [6]. Further, inhibition in series [7] was half-maximal at 2.2 ± 0.4 µM (IC50). For the same molecule, in series [10], the “phagocytosis / ICD response (in words)” value is listed as “high levels of phagocytosis”.
As for `CCCC[N+](CCCC)=C1[S][Au-]2([S]1)[c]1ccccc1Nc1cccc[n+]12.F[P-](F)(F)(F)(F)F` (stereo not shown) [5C], the IC50 in [1] is 0.086 ± 0.022 µM; in series [2], 0.18 ± 0.03 µM; in [3], 0.64 ± 0.14 µM; in [4], 0.41 ± 0.06 µM; in [5], 0.13 ± 0.03 µM; in series [6] it was 0.065 ± 0.015 µM. Moreover, inhibition in [7] was half-maximal at 0.36 ± 0.07 µM (IC50). In addition, in series [10], the phagocytosis rate is on record as 35% ± 9%. The “mice that developed tumors after vaccination” value in series [11] was “≈ 50%”.
